The subject of assay [1] is p-AMPK in HF cells of Adipoq−/− mice. In words: IF p-AMPK in HF cells of Adipoq−/− mice after topical P5. The class given is in vivo. Conditions: Adipoq−/− mouse, topical 0.1 mM P5. An excerpt: We also evaluated P5 effect in Adipoq ^−/− mouse (Ma et al, [2002]). […] Skin pigmentation was prominent in P5‐treated Adipoq ^−/− mice at day 14 (Fig 4E). […] At day 35, unlike vehicle‐treated Adipoq ^−/− mice showing little pigmentation, P5‐treated Adipoq ^−/− mice manifested hairs with pigmentation (Fig 4E). […] The DP cells in P5‐treated Adipoq ^−/− mice expressed versican (Fig 4G).
Paraffin‐embedded mouse cutaneous back tissue was sectioned (4 μm thickness) and stained with hematoxylin and eosin. […] IF intensity was observed and recorded with a Nikon Eclipse Ni‐E fluorescence microscope (Nikon).
For the hair cycle modulation experiment, Adipoq ^−/− (stock #008195; JAX) (Ma et al, [2002]), Adipor1 ^−/− (Yamauchi et al, [2007]; Okada‐Iwabu et al, [2013]), or C57BL/6 (KOATECH) female mice was used (Müller‐Röver et al, [2001]). […] The mouse hair growth score (a value from 0 to 100 based on the skin pigmentation and hair shaft density) was monitored and documented at designated days with the experimenters being blind to the conditions, following a previous study (Chai et al, [2019]). […] On day 35, we obtained dorsal cutaneous tissue for histological analysis: anagen induction scores (calculated using an assigned arbitrary score; telogen = 1, anagen I–VI = 2–7) (Müller‐Röver et al, [2001]).

A further assay has as its system FGF7 mRNA. In words: qRT-PCR growth factor gene expression in DP cells, FGF7. The class given is cell-based, human. To be noted: for mRNA_FGF7: DP cells. An excerpt: (§1) Next, we investigated the downstream effects of P5 on hair growth factor genes and proteins in DP cells. […] We tested whether P5 can also increase the mRNA levels and proteins of hair growth factors in DP cells: IGF‐1, VEGF, HGF, platelet‐derived growth factor alpha (PDGFA), and fibroblast growth factor (FGF) 7, which are known to induce or maintain the anagen phase of the hair cycle (Jindo et al, [1994]; Philpott et al, [1994]; Yano et al, [2001]; Jang, [2005]; Tomita et al, [2006]; Iino et al, [2007]).
Total RNA was isolated from P5‐treated DP cells using RNAiso Plus (#9109; TaKaRa). We used the total RNA (1 µg) for cDNA synthesis using a RevertAid First Strand cDNA Synthesis Kit (Thermo Fisher) according to the manufacturer's instructions. The mRNA expression levels were quantified on a 7500 Real‐time PCR System (Thermo Fisher) using TB Green Premix Ex Taq (TaKaRa Bio): human IGF‐1, VEGF, HGF, PDGFA, FGF7, and glyceraldehyde 3‐phosphate dehydrogenase (GAPDH) (Appendix Table S2). The relative expression levels of each gene were determined by the 2^‐ΔΔCT method.
(In qPCR the cycle at which signal appears reflects the starting amount.)

In the next assay the test system is IGF-1 protein. In words: Growth factor protein quantitation in DP cell medium, IGF-1. To be noted: for protein_IGF1: DP cell medium. The assay is classed as cell-based, human.
From the text: as §1
Human DP cells were grown on a 100‐mm cell culture dish to 100% confluency. After washed by PBS three times, the cells were cultured with serum‐free DMEM and treated with P5. After 48 h, the medium was collected and filtered by a […]. The filtrate was then concentrated using a centrifugal concentrator (Vivaspin 6, 10‐kDa molecular weight cutoff, centrifuged 2,600 g at 4°C for 13 min, Sartorius Stedim Biotech). The signals of each protein in the concentrated media were detected and quantified, based on the enzyme‐linked immunosorbent assay (Human Cytokine Antibody Array C2000, RayBiotech).

Setting [2] is: P5 5μM, relative to Control = 1, replicate 1.
Where [3] appears, read: P5 5μM, relative to Control = 1, replicate 2.
[4] abbreviates: P5 5μM, relative to Control = 1, replicate 3.
Setting [5] is: P5 25μM, relative to Control = 1, replicate 1.
The mark [6] stands for this setting: P5 25μM, relative to Control = 1, replicate 2.
Where [7] appears, read: P5 25μM, relative to Control = 1, replicate 3.

With “GLYYF [P5, GST-fused (GST-P5) in pulldown assays]”, the “p-AMPK in ORS cells of telogen HFs” value in assay [1] is given as “upregulation”. Also, the mRNA_FGF7 with FGF7 mRNA (setting [2]) worked out at 1.288; in the assay with FGF7 mRNA (setting [3]), 1.147; in the assay with FGF7 mRNA (setting [4]) it was 3.986; in the assay on FGF7 mRNA (P5 5μM, relative to Control = 1, replicate 4) it was 1.127; in the assay with FGF7 mRNA (P5 5μM, relative to Control = 1, replicate 5) it was 3.017; in the assay on FGF7 mRNA (P5 5μM, relative to Control = 1, replicate 6), 4.5839. For the same substance, the mRNA_FGF7 in the assay with FGF7 mRNA (setting [5]) turned out to be 1.191; with FGF7 mRNA (setting [6]), 1.18; in the assay with FGF7 mRNA (setting [7]), 4.101; in the assay on FGF7 mRNA (P5 25μM, relative to Control = 1, replicate 4), 1.133; in the assay on FGF7 mRNA (P5 25μM, relative to Control = 1, replicate 5) it was 2.672; with FGF7 mRNA (P5 25μM, relative to Control = 1, replicate 6) it was 4.897. Moreover, in the assay on FGF7 mRNA (P5-treated DP cells, n = 6), the “FGF7 mRNA expression” value is recorded as “significantly increased”. Further, the protein_IGF1 in the assay on IGF-1 protein (setting [2]) was determined as 0.9827; in the assay on IGF-1 protein (setting [3]) it was 1.413; with IGF-1 protein (setting [4]), 2.07; in the assay with IGF-1 protein (setting [5]), 1.764; in the assay with IGF-1 protein (setting [6]), 4.926; with IGF-1 protein (setting [7]) it was 5.716. Also, the “IGF-1 protein expression level” value in the assay on IGF-1 protein (P5-treated DP cells, 48 h medium, n = 3) is on record as “elevated”.

The record behind these values is paper PMC8495455, “Discovery of a transdermally deliverable pentapeptide for activating AdipoR1 to promote hair growth” (EMBO Molecular Medicine, 2021).
